Test results published in publication PMC5585349, “Biosynthesis of the nosiheptide indole side ring centers on a cryptic carrier protein NosJ” (Nature Communications, 2017).

Key:
NosI = NosI (Streptomyces actuosus, UniProt C6FX48); assay: LC-HR-MS detection of MIA-AMP ([…]); format: biochemical
NosK = target: T1, NosK (Streptomyces actuosus, UniProt C6FX50); assay: thioester hydrolysis, HPLC UV […] nm; format: biochemical; conditions: CoA thioester hydrolysed
T1 construct: expressed in E. coli, purified
T1 sequence (C6FX50 entry or part of it): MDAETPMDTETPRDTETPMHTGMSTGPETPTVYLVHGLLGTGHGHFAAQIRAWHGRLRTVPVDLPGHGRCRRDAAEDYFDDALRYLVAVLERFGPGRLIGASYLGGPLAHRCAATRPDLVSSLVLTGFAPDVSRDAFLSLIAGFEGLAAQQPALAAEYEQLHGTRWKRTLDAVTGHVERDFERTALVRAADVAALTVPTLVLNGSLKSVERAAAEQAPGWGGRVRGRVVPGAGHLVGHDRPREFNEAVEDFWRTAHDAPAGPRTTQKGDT

NosI, sequence (C6FX48 entry or part of it): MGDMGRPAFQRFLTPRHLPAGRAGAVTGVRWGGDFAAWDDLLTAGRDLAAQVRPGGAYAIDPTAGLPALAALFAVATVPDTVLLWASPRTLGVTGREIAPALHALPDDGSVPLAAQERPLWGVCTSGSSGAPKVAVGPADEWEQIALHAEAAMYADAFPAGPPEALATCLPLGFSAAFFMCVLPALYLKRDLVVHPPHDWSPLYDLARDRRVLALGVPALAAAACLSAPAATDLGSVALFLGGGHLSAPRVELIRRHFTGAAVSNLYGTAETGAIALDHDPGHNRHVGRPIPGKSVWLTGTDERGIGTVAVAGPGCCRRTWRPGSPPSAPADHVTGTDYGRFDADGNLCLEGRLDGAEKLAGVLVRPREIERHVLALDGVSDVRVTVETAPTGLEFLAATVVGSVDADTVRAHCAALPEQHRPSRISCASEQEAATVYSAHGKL

Structure (SMILES)	thioester hydrolysis, HPLC UV 300 nm (NosK)	also measured
Nc1ncnc2c1ncn2[C@@H]1O[C@H](COP(=O)(O)OP(=O)(O)OP(=O)(O)O)[C@@H](O)[C@H]1O [ATP]		LC-HR-MS detection of MIA-AMP (4) (NosI; MIA co-substrate): LC-HR-MS analysis of the reaction mixture containing NosI, MIA and ATP clearly showed the production
Cc1cccc2[nH]c(C(=O)SCCNC(=O)CCNC(=O)[C@H](O)C(C)(C)COP(=O)(O)OP(=O)(O)OC[C@H]3O[C@@H](n4cnc5c(N)ncnc54)[C@H](O)[C@@H]3OP(=O)(O)O)c(C)c12 [DMIA-CoA]	NosK also hydrolyzes the CoA-bound MIA and DMIA thioesters with comparative efficiencies	
Cc1c(C(=O)SCCNC(=O)CCNC(=O)[C@H](O)C(C)(C)COP(=O)(O)OP(=O)(O)OC[C@H]2O[C@@H](n3cnc4c(N)ncnc43)[C@H](O)[C@@H]2OP(=O)(O)O)[nH]c2ccccc12 [MIA-CoA]	NosK also hydrolyzes the CoA-bound MIA and DMIA thioesters with comparative efficiencies	
Cc1c(C(=O)O)[nH]c2ccccc12 [compound 3, 3-methyl-2-indolic acid]		LC-HR-MS detection of MIA-AMP (4) (NosI; ATP co-substrate, MIA adenylated, then transferred to pantetheine or holo-NosJ): LC-HR-MS analysis of the reaction mixture containing NosI, MIA and ATP clearly showed the production
